Source: PMC6471559, “Design and Synthesis of a New Soluble Natural β-Carboline Derivative for Preclinical Study by Intravenous Injection” (International Journal of Molecular Sciences, 2019)
Entries after “also recorded” stand apart in the source; their conditions may differ. Like-named read-outs stand apart in the source and are kept apart here.

What was measured:
[1] = Kinetic solubility by HPLC, Multiscreen Solubility Filter plate; assay type: physicochemical
Text: From those data, we chose an isopentyl substituent on position 7, which is suitable to decrease neurotoxicity of the targeted compound. We selected a propyl group on position 9 as a short alkyl substituent, seems to be suitable to maintain good antiproliferative properties. […] This high activity can result in low administered doses, thus counter-balancing the low LD50 associated with this N^2 substitution. […] It has been shown that pyridine scaffold in lead compounds can result in higher solubility because of the presence of the heteroatom. Finally, the pyridyl group offers good potential for salification and/or cocrystallization which can also improve pharmacological properties.
The kinetic solubility of compounds 1a and 1b was determined by HPLC method, using a Multiscreen Solubility Filter 96-well plate (Merck®) using a test adapted from. First, the calibration curve was performed from five solutions (3.13 µM 12.5 µM, 50 µM, 200 µM and 500 µM, with a final DMSO concentration of 5%). The kinetic solubility was measured in triplicate at physiological pH in phosphate buffer (0.05 M Na2HPO4; 0.02 M NaCl adjusted at physiological pH using solution NaH2PO4 0.05 M; NaCl 0.02 M) and in acidic condition (0.2 M HCl, 0.03 M NaCl adjusted at pH = 1.1 using HCl 37%). […]

[2] = test system: A549, MDA-MB-231, PANC-1, T98G and Hs683 cell lines; test: MTT antiproliferative assay, 72 h, summary over five cancer cell lines; assay type: cell-based; conditions: Homo sapiens, A549, MDA-MB-231, PANC-1, T98G and Hs683, MTT, read-out: IC50 range over five cancer cell lines
Procedure: (§1) Antiproliferative activity of compound 2 was evaluated using a colorimetric MTT assay for 72 h. […] Compound 2 activity was studied on different cancer cell lines: two glioma cell lines (T98G, Hs683), one breast cancer cell line (MDA-MB-231), one lung cancer cell line (A549) and one pancreatic cell line (PANC-1). A mean submicromolar antiproliferative activity was observed (Table 2). […] Cytotoxicity of compound 2 against normal cells (epithelial breast cells MCF-10a) vs. cancer cells (MDA-MB-231) was also determined. […] Antiproliferative activity and overall cytotoxicity of compound 2 on cancer and normal cells lines (breast cancer cell line MDA-MB231 and non-tumorigenic breast epithelial cells (MCF-10a) were determined in vitro using colorimetric MTT (Sigma-Aldrich (Schnelldorf, Germany)) solution (0.5 mg/mL in PBS) assay according to a protocol adapted from. Cells were seeded in 96-well culture plate (1200 cells/well 1 day before incubation and were treated for 72 h in culture medium at 37 °C with different concentrations of compound 2 ranging from 1 nM to 10 μM, with semilog concentration increasing of the compound. […] Then, blue formazan was solubilized with DMSO and absorbance at 570 nm, which is directly proportional to the number of metabolic active cells, is determined. […]

[3] = Stability in three media by UV spectra from 0 h to 72 h at 37 °C; assay type: physicochemical; conditions: pH 1.1, pH 7.4 and simulated injection vehicle (0.9% NaCl, 0.1% Polysorbate 80)
Procedure: (§2) Compound 2 solubility and stability measurements were performed at 37 °C at pH 1.1 (0.02 M NaCl, pH 1.1 obtained by HCl addition) to mimic gastric conditions, at pH 7.4 (0.050 M Na2HPO4/NaH2PO4 and 0.02 M NaCl, pH 7.4) and simulated injection vehicle (0.9% NaCl and 0.1% Polysorbate 80). Stability measurements were performed from 0 h to 72 h after complete solubilization. […] At pH 1.1 as well as in the simulated injection vehicle, a higher solubility is observed in comparison with the solubility at physiological pH. Solubility is 1.06 ± 0.08 mg/mL at physiological pH, 1.62 ± 0.13 mg/mL at acidic pH, as well as 1.87 ± 0.07 mg/mL in a simulated vehicle injection (Table 1).
We have evaluated the stability of compound 2 in three different conditions (at pH 1.1, at pH 7.4 and in a simulated injection vehicle) for three days and at 37 °C because it is compatible with physiological temperature and because a higher temperature can result in a better solubilization. We observe that the compound remains stable for at least three days in the three different solutions tested, which allowed determination of its thermodynamic solubility. […]

[4] = Thermodynamic solubility by UV absorbance at 330 nm after 72 h stirring at 37 °C; assay type: physicochemical; conditions: thermodynamic from solid
Procedure: as §2
Solubility of compound 2 was evaluated at 37 °C, at pH 1.1 (0.02 M NaCl, pH 1.1 obtained by HCl addition), at physiological pH (buffer 0.050 M Na2HPO4/NaH2PO4 and 0.02 M NaCl, pH 7.4) as well as in a simulated injection vehicle (0.9% NaCl and 0.1% Polysorbate 80 pH 7.4). To this aim, an excess of compound 2 was placed in the […] media in a 24 well plate and stirred (1200 rpm) 72 h at 37 °C after hermetic sealing. After 72 h of stirring, the solutions were filtered (0.2 µm) and diluted 100 times. The solubility was determined by UV absorbance at 330 nm using a calibration curve (five points in a range of concentration between 0.005 and 0.1 mg/mL). All measurements were made in triplicate and adequate dissolutions were performed to stay in Beer-Lambert conditions.

[5] = test system: PANC-1 human epithelioid carcinoma cells; test: MTT antiproliferative assay, 72 h; assay type: cell-based
Procedure: (§3) Antiproliferative activity of compound 2 was evaluated using a colorimetric MTT assay for 72 h. […] Compound 2 activity was studied on different cancer cell lines: two glioma cell lines (T98G, Hs683), one breast cancer cell line (MDA-MB-231), one lung cancer cell line (A549) and one pancreatic cell line (PANC-1). A mean submicromolar antiproliferative activity was observed (Table 2). […] Cytotoxicity of compound 2 against normal cells (epithelial breast cells MCF-10a) vs. cancer cells (MDA-MB-231) was also determined. […] MDA-MB-231 human breast cancer cells, T98G human brain cancer cells and PANC-1 human epithelioid carcinoma were maintained in culture in 75-cm^2 polystyrene flasks (Corning®, […], Luxembourg) with respectively 15 mL of Dulbecco's modified Eagle's medium (#341966-029 DMEM 1X; ThermoFisher, Gibco®, Geel, Belgium) containing 4.5g/L of glucose, 10% of fetal calf serum (#10270 ThermoFisher, Gibco®, Geel, Belgium) and supplemented with penicillin-streptomycin 10,000 U/mL (#15140 ThermoFisher, Gibco®, Geel, Belgium) incubated under an atmosphere containing 5% CO2. HS683 human glioma and A549 human lung carcinoma were maintained in culture in 75-cm^2 polystyrene flasks (Corning®) with respectively 15 mL of Roswell Park Memorial Institute medium (Gibco® RPMI 1640, Thermofisher, Geel, Belgium) containing 10% of fetal calf serum (#10270 ThermoFisher, Gibco®, Geel, Belgium) and supplemented with penicillin-streptomycin 10,000 U/mL (#15140 ThermoFisher, Gibco®, Geel, Belgium), glutamine (200 mM) and HEPES (25 mM) incubated under an atmosphere containing 5% CO2. MCF-10-a human non-tumorigenic breast epithelial cells were maintained in 75-cm^2 polystyrene flasks (Corning®, […], Luxembourg) with 15 mL of Gibco®, Geel, Belgium) F-12 Nutrient Mixture (Ham) containing 5% of horse serum (Invitrogen®) supplemented with 10 μg/mL of human Insulin (Sigma®, Schnelldorf, Germany), 0.5 μ/mL of Hydrocortisone (Sigma®, Schnelldorf, Germany) and 20 ng/mL of Epidermal Growth Factor (Peprotech®, London, UK) incubated under an atmosphere containing 5% CO2. The cell lines were obtained from the American Type Culture Collection (ATCC, Manassas, VA). Antiproliferative activity and overall cytotoxicity of compound 2 on cancer and normal cells lines (breast cancer cell line MDA-MB231 and non-tumorigenic breast epithelial cells (MCF-10a) were determined in vitro using colorimetric MTT (Sigma-Aldrich (Schnelldorf, Germany)) solution (0.5 mg/mL in PBS) assay according to a protocol adapted from. Cells were seeded in 96-well culture plate (1200 cells/well 1 day before incubation and were treated for 72 h in culture medium at 37 °C with different concentrations of compound 2 ranging from 1 nM to 10 μM, with semilog concentration increasing of the compound. The yellow MTT product was converted to a purple formazan derivative through mitochondrial enzymatic reduction. At the end of the incubation of 4 h, the plate was centrifugated at 1200 rpm for 5 min and the MTT solution was decanted. Then, blue formazan was solubilized with DMSO and absorbance at 570 nm, which is directly proportional to the number of metabolic active cells, is determined. Experiments were carried out in sextuplicates.

[6] = test system: MDA-MB-231 human breast cancer cells; test: MTT antiproliferative assay, 72 h; assay type: cell-based
Procedure: as §3

[7] = test system: T98G human brain cancer cells; test: MTT antiproliferative assay, 72 h; assay type: cell-based
Procedure: as §3

[8] = test system: A549 human lung carcinoma cells; test: MTT antiproliferative assay, 72 h; assay type: cell-based
Procedure: as §3

[9] = test system: Hs683 human glioma cells; test: MTT antiproliferative assay, 72 h; assay type: cell-based
Procedure: as §3

[10] = test system: MCF-10a human non-tumorigenic breast epithelial cells; test: MTT cytotoxicity on normal cells vs. cancer cells; assay type: cell-based; conditions: in the IC50 concentration range
Procedure: as §1

Structure (SMILES): Cc1nccc2c1[nH]c1cc(OCCC(C)C)ccc12 [1a, 1-methyl-7-(3-methylbutoxy)-9H-pyrido[3,4-b]indole]
- Kinetic solubility at low pH ([1]; pH 1.1): good solubility at low pH

Structure (SMILES): CCCn1c2cc(OCCC(C)C)ccc2c2ccnc(C)c21 [1b, 1-methyl-7-(3-methylbutoxy)-9-propyl-9H-pyrido[3,4-b]indole]
- Kinetic solubility at low pH ([1]; acidic condition pH 1.1, 5% DMSO, preliminary data, values only in Figure 2B): good solubility at low pH

Structure (SMILES): CCCn1c2cc(OCCC(C)C)ccc2c2cc[n+](Cc3ccccn3)c(C)c21.[Br-] [compound 2, 1-methyl-7-(3-methylbutoxy)-9-propyl-2-[(pyridin-2-yl)methyl]-9H-pyrido[3,4-b]indol-2-ium bromide]
- IC50 [2]: 0.2 to 2 µM
- Time for which the compound is stable (no modification of UV spectra) [3]: at least 72 h
- solubility thermodynamic at 72 h ([4]; 0.02 M NaCl solution acidified with HCl, pH 1.1, simulated gastric fluid, pH 1.1 (0.02 M NaCl, HCl), read-out: Mean thermodynamic solubility at 37 °C): 1.62 ± 0.13 mg/mL
- solubility thermodynamic at 72 h ([4]; 0.02 M NaCl solution acidified with HCl, pH 1.1, simulated gastric fluid, pH 1.1 (0.02 M NaCl, HCl), read-out: Thermodynamic solubility at 37 °C replicate 1): 1.46 ± 0.01 mg/mL
- solubility thermodynamic at 72 h ([4]; 0.02 M NaCl solution acidified with HCl, pH 1.1, simulated gastric fluid, pH 1.1 (0.02 M NaCl, HCl), read-out: Thermodynamic solubility at 37 °C replicate 2): 1.63 ± 0.02 mg/mL
- solubility thermodynamic at 72 h ([4]; 0.02 M NaCl solution acidified with HCl, pH 1.1, simulated gastric fluid, pH 1.1 (0.02 M NaCl, HCl), read-out: Thermodynamic solubility at 37 °C replicate 3): 1.77 ± 0.01 mg/mL
- solubility thermodynamic at 72 h ([4]; phosphate buffer, pH 7.4, aqueous buffer, pH 7.4 phosphate buffer, read-out: Mean thermodynamic solubility at 37 °C): 1.06 ± 0.08 mg/mL
- solubility thermodynamic at 72 h ([4]; phosphate buffer, pH 7.4, aqueous buffer, pH 7.4 phosphate buffer, read-out: Thermodynamic solubility at 37 °C replicate 1): 0.98 ± 0.01 mg/mL
- solubility thermodynamic at 72 h ([4]; phosphate buffer, pH 7.4, aqueous buffer, pH 7.4 phosphate buffer, read-out: Thermodynamic solubility at 37 °C replicate 2): 0.99 ± 0.01 mg/mL
- solubility thermodynamic at 72 h ([4]; phosphate buffer, pH 7.4, aqueous buffer, pH 7.4 phosphate buffer, read-out: Thermodynamic solubility at 37 °C replicate 3): 1.15 ± 0.01 mg/mL
- solubility thermodynamic at 72 h ([4]; simulated injection vehicle, pH 7.4, aqueous with cosolvent or surfactant or cyclodextrin, injection vehicle (0.9% NaCl and 0.1% Polysorbate 80), read-out: Mean thermodynamic solubility at 37 °C): 1.87 ± 0.07 mg/mL
- solubility thermodynamic at 72 h ([4]; simulated injection vehicle, pH 7.4, aqueous with cosolvent or surfactant or cyclodextrin, injection vehicle (0.9% NaCl and 0.1% Polysorbate 80), read-out: Thermodynamic solubility at 37 °C replicate 1): 1.95 ± 0.01 mg/mL
- solubility thermodynamic at 72 h ([4]; simulated injection vehicle, pH 7.4, aqueous with cosolvent or surfactant or cyclodextrin, injection vehicle (0.9% NaCl and 0.1% Polysorbate 80), read-out: Thermodynamic solubility at 37 °C replicate 2): 1.9 ± 0.04 mg/mL
- solubility thermodynamic at 72 h ([4]; simulated injection vehicle, pH 7.4, aqueous with cosolvent or surfactant or cyclodextrin, injection vehicle (0.9% NaCl and 0.1% Polysorbate 80), read-out: Thermodynamic solubility at 37 °C replicate 3): 1.77 ± 0.01 mg/mL
- IC50 ([5]; Homo sapiens, PANC-1, MTT, 72 h): 0.35 µM
- Cytostatic at IC50 ([5]; PANC-1, metabolic activity at IC50 compared with T = 0 h): No
- IC50 ([6]; Homo sapiens, MDA-MB-231, MTT, 72 h): 0.449 µM
- Cytostatic at IC50 ([6]; MDA-MB-231, metabolic activity at IC50 compared with T = 0 h): cytostatic behavior; also recorded: cytostatic effect
- IC50 ([7]; Homo sapiens, MTT, 72 h): 2.19 µM
- Cytostatic at IC50 ([7]; metabolic activity at IC50 compared with T = 0 h): No
- Cytostatic at IC50 ([8]; A549, metabolic activity at IC50 compared with T = 0 h): cytostatic behavior; also recorded: cytostatic effect
- IC50 ([8]; Homo sapiens, A549, MTT, 72 h): 0.261 µM
- IC50 [9]: 0.305 µM
- IC50 ([9]; Homo sapiens, Hs 683, 72 h): < 0.5 µM
- Activity on normal cells (MCF-10a) vs. cancer cells (MDA-MB-231) [10]: more active on a cancer cell line than on normal cells
- Activity on normal cells (MCF-10a) vs. cancer cells (MDA-MB-231) ([10]; listed as 1-methyl-7-(3-methylbutoxy)-9-propyl-2-[(pyridin-2-yl)methyl]-9H-pyrido[3,4-b]in): more active on cancer cells (MDA-MB-231) than on normal cells (MCF-10a)
